{
  "source": "paper PMC8869507",
  "about": "“Gel-Forming of Self-Assembling Peptides Functionalized with Food Bioactive Motifs Modulate DPP-IV and ACE Inhibitory Activity in Human Intestinal Caco-2 Cells” (Biomedicines, 2022)",
  "key": {"[1]": {"test": "Atomic force microscopy (AFM) of peptide nanostructures", "assay_type": "physicochemical", "conditions": "AFM tapping mode, 0.01% w/v in distilled water, sonicated 30 min, on mica", "procedure": "AFM measurements were captured in tapping mode using a Tosca system (Anton Paar, Graz, Austria) using single-beam silicon cantilever probes. Peptides were dissolved in distilled water at a final concentration of 0.01% w/v and sonicated for 30 min, the same day as imaging. Then, 5 μL of peptide solution were deposited for 5 min on freshly cleaved mica, and distilled water was used to remove peptides loosely bound to the mica."}, "[2]": {"test_system": "DPP-IV", "test": "In vitro DPP-IV activity assay", "assay_type": "biochemical", "conditions": "IAVP up to 1 mg/mL (1, 10, 100, 500 and 1000 μg/mL), Tris-HCl pH 8.0, H-Gly-Pro-AMC, 37°, 30 min, fluorescence 350/465 nm, triplicate", "procedure": "(§1) Peptide IAVP (1 mg/mL) was tested as previously described evaluating its DPP-IV and ACE inhibitory activity, respectively. For the evaluation of in vitro ACE inhibitory activity, a biochemical assay was used (further details are reported in supplementary materials).\n(§2) Supplementary Materials for Gel‐forming of self‐assembling peptides functionalized with food bioactive motifs modulate DPP‐IV and ACE inhibitory ac‐ tivity in human intestinal Caco‐2 cells\n(§3) Raffaele Pugliese1,*, Martina Bartolomei2, Carlotta Bollati2, Giovanna Boschin2, Anna Arnoldi2, and Carmen […]\n(§4) In vitro evaluation of ACE inhibition activity. […]\n(§5) The evaluation of the inhibition of ACE activity was based on the comparison between the concentrations of HA in the presence or absence of the inhibitor (Inhibitor Blank). The phenomenon of autolysis of HHL to give HA was evaluated by a reaction blank, i.e. a sample with the higher inhibitor concentration but without the enzyme. The percentage of ACE inhibition was calculated considering the area of the HA peak with the following formula: […] where AIB is the area of HA in the Inhibitor Blank (IB) sample (i.e., sample with enzyme but without inhibitor), AN is the area of HA in the samples containing different inhibitor amounts, and ARB is the area of HA in the Reaction Blank (RB) sample (i.e., sample without enzyme and with inhibitor at the highest concentration). […]"}, "[3]": {"test_system": "ACE", "test": "In vitro evaluation of ACE inhibition activity (HHL substrate)", "assay_type": "biochemical, porcine kidney", "conditions": "1 mg/mL; HHL 2.5 mM, pH 8.3, preincubation 15 min 37 °C, incubation 60 min 37 °C, HPLC of hippuric acid", "procedure": "as §1, §2, §3, §4, §5"}, "[4]": {"test_system": "DPP-IV and ACE", "conditions": "cited from earlier work; for concentration encapsulated needed for positive effect on DPP-IV and ACE: encapsulated in RADA16 hydrogel, previously reported by the authors, reference not given; for capability of inhibiting DPP-IV and ACE: non-covalently entrapped into RADA16, ref [10]", "source_text": "(§6) However, such food-derived peptides show low stability, bioavailability (due to their rapid degradation by active peptidases located on the intestinal microvilli), and a poor propensity to form functional biomaterials (i.e., hydrogels), thus precluding their practical applications."}, "[5]": {"test_system": "proteases", "conditions": "cited from earlier work; for bioavailability / resistance towards proteases: non-covalent encapsulation in RADA16 hydrogel vs plain solutions, previously reported by the authors, reference not given; for stability: non-covalently entrapped into RADA16, ref [10]", "source_text": "as §6"}, "[6]": {"test_system": "Caco-2 cells", "conditions": "cited from earlier work"}, "[7]": {"test_system": "DPP-IV", "conditions": "cited from earlier work; for DPP-IV activity in situ: human Caco-2 cells; for DPP-IV activity in situ / DPP-IV activity in vitro: ref [1]; for IC50: plain solutions, ref [4]", "source_text": "IAVPTGVA and LTFPGSAED (dubbed, respectively, Soy1 and Lup1) are two peptides derived from the hydrolysis of soybean glycinin and lupin β-conglutin, respectively. […] This difference was explained ..."}, "[8]": {"test_system": "HepG2 cells", "conditions": "human HepG2 cells, ref [3],[5], cited from earlier work; for LDL uptake: LDL from the extracellular environment; for LDLR protein levels: through HMGCoAR inhibition", "source_text": "(§7) IAVPTGVA and LTFPGSAED (dubbed, respectively, Soy1 and Lup1) are two peptides derived from the hydrolysis of soybean glycinin and lupin β-conglutin, respectively."}, "[9]": {"test_system": "HMGCoAR", "conditions": "in vitro; ref [1],[2],[3],[4]; cited from earlier work", "source_text": "as §7"}, "[10]": {"test_system": "ACE", "conditions": "ACE activity expressed by Caco-2 cells, dose–response; no reference printed in the sentence (sentence before: ref [28]); cited from earlier work", "source_text": "This difference was explained ..."}, "[11]": {"conditions": "non-covalently entrapped in RADA16; previously reported by the authors, reference not given; cited from earlier work"}, "[12]": {"test_system": "ACE", "design": "method as in PMID 32223157", "conditions": "metabolite of Lup1; ref [28]; cited from earlier work"}, "[13]": {"test_system": "DPP-IV", "design": "method as in PMID 32223157", "conditions": "metabolite of Lup1; ref [28]; cited from earlier work"}, "[14]": {"test_system": "ACE", "design": "method as in BIOPEP", "conditions": "from casein and soybean hydrolysates; ref BIOPEP; cited from earlier work"}, "[15]": {"conditions": "DPP-IV expressed by Caco-2 cells, read-out: IC50 cellular DPP-IV"}, "[16]": {"conditions": "purified enzymes, read-out: IC50 in vitro DPP-IV"}},
  "note": "Where two headings read alike, the source gives them in different places.",
  "data": [
    {"substance": "Ac-LTFPGSAEDGGGRADARADARADARADA-NH2 [fAP-Lup1, RADA16 functionalized at the N-terminus with Lup1 through a three-glycines spacer]", "values": [
      {"measurement": "nanostructure morphology", "setting": "[1]", "result": "did not form nanofibers, but instead led to the formation of sparse round aggregates"}
    ]},
    {"substance": "IAVP [small peptide from degradation of Soy1]", "values": [
      {"measurement": "DPP-IV inhibitory activity", "setting": "[2]", "result": "totally ineffective on DPP-IV"},
      {"measurement": "reduction of in vitro ACE activity", "setting": "[3]", "result": "20.1 ± 0.5", "unit": "%"}
    ]},
    {"substance": "Ac-IAVPTGVAGGGRADARADARADARADA-NH2 [fAP-Soy1, RADA16 functionalized at the N-terminus with Soy1 through a three-glycines spacer]", "values": [
      {"measurement": "nanostructure morphology", "setting": "[1]", "result": "short single nanofibers"}
    ]},
    {"substance": "RADA16", "values": [
      {"measurement": "nanostructure morphology", "setting": "[1]", "result": "self-assembles into long nanofibers"}
    ]},
    {"substance": "LTFPGSAED [Lup1, peptide derived from the hydrolysis of lupin β-conglutin]", "values": [
      {"measurement": "concentration encapsulated needed for positive effect on DPP-IV and ACE", "setting": "[4]", "result": "more than 100 μM"},
      {"measurement": "capability of inhibiting DPP-IV and ACE", "setting": "[4]", "result": "significantly improved as well as their capability of inhibiting DPP-IV and ACE"},
      {"measurement": "bioavailability", "setting": "[5]", "result": "higher bioavailability"},
      {"measurement": "resistance towards proteases", "setting": "[5]", "result": "higher resistance towards the proteases"},
      {"measurement": "stability", "setting": "[5]", "result": "significantly improved"},
      {"measurement": "transport across the intestinal barrier", "setting": "[6]", "result": "able to across the intestinal barrier"},
      {"measurement": "DPP-IV activity in situ", "setting": "[7]", "result": "drop the in vitro and in situ human Caco-2 cells DPP-IV activity"},
      {"measurement": "DPP-IV activity in vitro", "setting": "[7]", "result": "drop the in vitro and in situ human Caco-2 cells DPP-IV activity"},
      {"measurement": "IC50", "setting": "[7]; [15]", "result": 208, "unit": "µM"},
      {"measurement": "IC50", "setting": "[7]; [16]", "result": 228, "unit": "µM"},
      {"measurement": "LDL uptake", "setting": "[8]", "result": "improved the ability of hepatic cells to uptake LDL"},
      {"measurement": "LDLR protein levels", "setting": "[8]", "result": "upregulation of the LDLR protein levels"},
      {"measurement": "HMGCoAR inhibition", "setting": "[9]", "result": "act as in vitro HMGCoAR and DPP-IV inhibitors"},
      {"measurement": "IC50", "setting": "[10]", "result": 13.7, "unit": "µM"},
      {"measurement": "release from RADA16 hydrogel", "setting": "[11]", "result": "regularly delivered by the RADA16 hydrogel during the 360 min of controlled release tests"}
    ]},
    {"substance": "LTFPG [peptide cleaved from Lup1]", "values": [
      {"measurement": "ACE inhibitory activity", "setting": "[12]", "result": "maintains its ACE inhibitory activity"},
      {"measurement": "DPP-IV inhibitory activity", "setting": "[13]", "result": "losing that against DPP-IV"}
    ]},
    {"substance": "IAVPTGVA [Soy1, peptide derived from the hydrolysis of soybean glycinin]", "values": [
      {"measurement": "concentration encapsulated needed for positive effect on DPP-IV and ACE", "setting": "[4]", "result": "more than 100 μM"},
      {"measurement": "capability of inhibiting DPP-IV and ACE", "setting": "[4]", "result": "significantly improved as well as their capability of inhibiting DPP-IV and ACE"},
      {"measurement": "bioavailability", "setting": "[5]", "result": "higher bioavailability"},
      {"measurement": "resistance towards proteases", "setting": "[5]", "result": "higher resistance towards the proteases"},
      {"measurement": "stability", "setting": "[5]", "result": "significantly improved"},
      {"measurement": "transport across the intestinal barrier", "setting": "[6]; Caco-2 trans-epithelial transport, ref [28],[29]", "result": "able to across the intestinal barrier"},
      {"measurement": "break-down fragments by intestinal peptidases", "setting": "[6]; apical side of Caco-2 cells, trans-epithelial transport, ref [29]", "result": "metabolized in three breakdown fragments (AVPTGVA, IAVP, and IAV)"},
      {"measurement": "susceptibility to metabolic activity of peptidase", "setting": "[6]; apical side of human intestinal Caco-2 cells, compared with Lup1, ref [28]", "result": "more suitable for the metabolic activity of peptidase"},
      {"measurement": "DPP-IV activity in situ", "setting": "[7]", "result": "drop the in vitro and in situ human Caco-2 cells DPP-IV activity"},
      {"measurement": "DPP-IV activity in vitro", "setting": "[7]", "result": "drop the in vitro and in situ human Caco-2 cells DPP-IV activity"},
      {"measurement": "IC50", "setting": "[7]; [15]", "result": 223, "unit": "µM"},
      {"measurement": "IC50", "setting": "[7]; [16]", "result": 106, "unit": "µM"},
      {"measurement": "LDL uptake", "setting": "[8]", "result": "improved the ability of hepatic cells to uptake LDL"},
      {"measurement": "LDLR protein levels", "setting": "[8]", "result": "upregulation of the LDLR protein levels"},
      {"measurement": "HMGCoAR inhibition", "setting": "[9]", "result": "act as in vitro HMGCoAR and DPP-IV inhibitors"},
      {"measurement": "IC50", "setting": "[10]", "result": 14.7, "unit": "µM"}
    ]},
    {"substance": "AVP", "values": [
      {"measurement": "known ACE inhibitor peptide", "setting": "[14]", "result": "known ACE inhibitor peptides"}
    ]}
  ]
}
